Legend:
[1] = Pharmacokinetics after single oral and intravenous administration in rats; conditions: for AUC / Cmax: rat, plasma, po, 10 mg/kg; for BA: rats, 10 mg/kg po vs 3 mg/kg iv
HIV-1Ba-L (R5) = assay: Anti-HIV-1 activity: inhibition of HIV p24 antigen expression in PBMC, HIV-1Ba-L; type: cell-based; conditions: read-out: Anti-HIV-1 activity IC50 HIV-1Ba-L (R5)
HIV-1MM (R5MDR) = conditions: read-out: Anti-HIV-1 activity IC50 HIV-1MM (R5MDR); inhibition of HIV p24 antigen expression in PBMC; multidrug-resistant
human CCR5 = human CCR5 (Homo sapiens, UniProt P51681); type: cell-based; conditions: versus the other three stereoisomers of the hydroxylated analog of 1
human CCR5, sequence (P51681 whole entry): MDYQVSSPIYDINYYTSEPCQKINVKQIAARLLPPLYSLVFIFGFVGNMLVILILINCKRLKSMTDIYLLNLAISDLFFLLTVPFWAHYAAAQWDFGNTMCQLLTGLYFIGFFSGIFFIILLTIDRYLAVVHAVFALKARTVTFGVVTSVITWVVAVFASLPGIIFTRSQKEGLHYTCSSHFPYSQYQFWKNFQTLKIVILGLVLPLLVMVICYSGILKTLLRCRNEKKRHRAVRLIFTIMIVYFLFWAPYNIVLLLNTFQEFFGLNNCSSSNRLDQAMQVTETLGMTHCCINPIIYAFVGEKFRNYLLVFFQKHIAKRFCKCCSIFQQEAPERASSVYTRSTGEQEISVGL

Row | Molecule | AUC [1] | Cmax [1] | BA [1] | further results
1 | CCCCN1C(=O)C(CC(C)C)NC(=O)C12CCN(Cc1ccc(Oc3ccccc3)cc1)CC2.Cl (stereo not drawn) [Compound 1] | 96.7 ng·h/mL | 33.3 ng/mL |  | 
2 | SCH-351125 |  |  |  | IC50 (HIV-1Ba-L (R5)): 4 ± 2 nM; IC50 (HIV-1MM (R5MDR)): 3 ± 0.5 nM
3 | CCCCN1C(=O)[C@@H]([C@H](O)C(C)C)NC(=O)C12CCN(Cc1ccc(Oc3ccccc3)cc1)CC2.Cl [Compound 3] |  |  |  | fold higher potency than the other isomers in Ca assay (human CCR5): 4.5-12 fold
4 | CCCCN1C(=O)C(CC2CCCCC2)NC(=O)C12CCN(Cc1ccc(Oc3ccccc3)cc1)CC2.Cl (stereo not drawn) [Compound 2] | 24.8 ng·h/mL | 5.6 ng/mL | 1.9% | 
5 | CCCCN1C(=O)[C@H](CC2CCCCC2)NC(=O)C12CCN(Cc1ccc(Oc3ccc(C(=O)O)cc3)cc1)CC2.Cl [Compound 5] |  |  | 34% | 
